Test results taken from patent US20250195463A1, “ORGANOMETALLIC COMPLEX, CONTROLLED-RELEASE MULTI-FUNCTIONAL DRUG, PHARMACEUTICAL COMPOSITION, PROCESSES FOR THE PREPARATION THEREOF AND THEIR USE” (FACULDADE DE CIÊNCIAS DA UNIVERSIDADE DE LISBOA, priority 2022, published 2025).

What was measured:
[1] = Stability in aqueous medium (dimethyl sulfoxide/Dulbecco's Modified Eagle Medium) by UV-Vis spectroscopy; format: physicochemical; details: 5% dimethyl sulfoxide/95% Dulbecco's Modified Eagle Medium; for Relative variation of the maximum absorbance of the π→π* transitions: band 292-296 nm (λmax in column head); for Relative variation of the maximum absorbance of the charge transfer bands: band 358-400 nm (λmax in column head)
Description: (§1) The stability of the complexes 4-11 in organic and aqueous media was evaluated over 24 h by UV-Vis spectroscopy at room temperature, in dark, on a Jasco V-660 spectrometer using quartz cuvettes (1 cm optical path length). The electronic spectra (270-900 nm) were acquired at regular periods of time (0 h, 0.25 h, 0.5 h, 0.75 h, 1 h, 2 h, 3 h, 4 h, 5 h, 6 h, 24 h) for solutions of 100% dimethyl sulfoxide (complexes 4-11) and 5% dimethyl sulfoxide/95% Dulbecco's Modified Eagle Medium (complexes 4, 5 and 8-11) or 10% dimethyl sulfoxide/90% Dulbecco's Modified Eagle Medium (complexes 6 and 7) at concentrations ranging from 7.0×10^-5 M to 3.0×10^-4 M.

[2] = Stability in organic medium (dimethyl sulfoxide) by UV-Vis spectroscopy; format: physicochemical; details: for Relative variation of the maximum absorbance of the charge transfer bands: band 357-425 nm (λmax in column head); for Relative variation of the maximum absorbance of the π→π* transitions: band 289-300 nm (λmax in column head)
Description: as §1

## CCOC(=O)Oc1cc[n+]2c(c1)-c1cc(OC)cc[n+]1[Ru-]2([CH]1C=CC=C1)[PH](c1ccccc1)(c1ccccc1)c1ccccc1.O=S(=O)([O-])C(F)(F)F (centres unmarked) [compound 11]
[1]; time 0 h
  Relative variation of the maximum absorbance of the π→π* transitions: 0.0%
  Relative variation of the maximum absorbance of the charge transfer bands: 0.0%
[1]; time 0.25 h
  Relative variation of the maximum absorbance of the π→π* transitions: −0.2%
  Relative variation of the maximum absorbance of the charge transfer bands: −0.1%
[1]; time 0.5 h
  Relative variation of the maximum absorbance of the π→π* transitions: −0.3%
  Relative variation of the maximum absorbance of the charge transfer bands: 0.0%
[1]; time 0.75 h
  Relative variation of the maximum absorbance of the π→π* transitions: −0.2%
  Relative variation of the maximum absorbance of the charge transfer bands: 0.1%
[1]; time 1 h
  Relative variation of the maximum absorbance of the π→π* transitions: −0.2%
  Relative variation of the maximum absorbance of the charge transfer bands: 0.1%
[1]; time 2 h
  Relative variation of the maximum absorbance of the π→π* transitions: −0.5%
  Relative variation of the maximum absorbance of the charge transfer bands: 0.1%
[1]; time 3 h
  Relative variation of the maximum absorbance of the π→π* transitions: −0.4%
  Relative variation of the maximum absorbance of the charge transfer bands: 0.1%
[1]; time 4 h
  Relative variation of the maximum absorbance of the π→π* transitions: −0.9%
  Relative variation of the maximum absorbance of the charge transfer bands: 0.0%
[1]; time 5 h
  Relative variation of the maximum absorbance of the π→π* transitions: −0.7%
  Relative variation of the maximum absorbance of the charge transfer bands: 0.1%
[1]; time 6 h
  Relative variation of the maximum absorbance of the π→π* transitions: −0.4%
  Relative variation of the maximum absorbance of the charge transfer bands: 0.2%
[1]; time 24 h
  Relative variation of the maximum absorbance of the π→π* transitions: −1.0%
  Relative variation of the maximum absorbance of the charge transfer bands: 0.4%
[2]; time 0 h
  Relative variation of the maximum absorbance of the charge transfer bands: 0.0%
[2]; time 0.25 h
  Relative variation of the maximum absorbance of the charge transfer bands: 0.0%
[2]; time 0.5 h
  Relative variation of the maximum absorbance of the charge transfer bands: 0.2%
[2]; time 0.75 h
  Relative variation of the maximum absorbance of the charge transfer bands: 0.1%
[2]; time 1 h
  Relative variation of the maximum absorbance of the charge transfer bands: 0.3%
[2]; time 2 h
  Relative variation of the maximum absorbance of the charge transfer bands: 0.1%
[2]; time 3 h
  Relative variation of the maximum absorbance of the charge transfer bands: 0.0%
[2]; time 4 h
  Relative variation of the maximum absorbance of the charge transfer bands: −0.2%
[2]; time 5 h
  Relative variation of the maximum absorbance of the charge transfer bands: −0.3%
[2]; time 6 h
  Relative variation of the maximum absorbance of the charge transfer bands: −0.3%
[2]; time 24 h
  Relative variation of the maximum absorbance of the charge transfer bands: 0.2%

## COc1cc[n+]2c(c1)-c1cc(O)cc[n+]1[Ru-]2([CH]1C=CC=C1)[PH](c1ccccc1)(c1ccccc1)c1ccccc1.O=S(=O)([O-])C(F)(F)F (centres unmarked) [compound 10]
[1]; time 0 h
  Relative variation of the maximum absorbance of the π→π* transitions: 0.0%
  Relative variation of the maximum absorbance of the charge transfer bands: 0.0%
[1]; time 0.25 h
  Relative variation of the maximum absorbance of the π→π* transitions: 0.0%
  Relative variation of the maximum absorbance of the charge transfer bands: −0.8%
[1]; time 0.5 h
  Relative variation of the maximum absorbance of the π→π* transitions: −1.7%
  Relative variation of the maximum absorbance of the charge transfer bands: −0.7%
[1]; time 0.75 h
  Relative variation of the maximum absorbance of the π→π* transitions: −1.9%
  Relative variation of the maximum absorbance of the charge transfer bands: −1.0%
[1]; time 1 h
  Relative variation of the maximum absorbance of the π→π* transitions: −2.2%
  Relative variation of the maximum absorbance of the charge transfer bands: −1.3%
[1]; time 2 h
  Relative variation of the maximum absorbance of the π→π* transitions: −3.1%
  Relative variation of the maximum absorbance of the charge transfer bands: −2.3%
[1]; time 3 h
  Relative variation of the maximum absorbance of the π→π* transitions: −4.1%
  Relative variation of the maximum absorbance of the charge transfer bands: −3.1%
[1]; time 4 h
  Relative variation of the maximum absorbance of the π→π* transitions: −5.1%
  Relative variation of the maximum absorbance of the charge transfer bands: −3.6%
[1]; time 5 h
  Relative variation of the maximum absorbance of the π→π* transitions: −5.6%
  Relative variation of the maximum absorbance of the charge transfer bands: −4.3%
[1]; time 6 h
  Relative variation of the maximum absorbance of the π→π* transitions: −6.0%
  Relative variation of the maximum absorbance of the charge transfer bands: −4.8%
[1]; time 24 h
  Relative variation of the maximum absorbance of the π→π* transitions: −7.0%
  Relative variation of the maximum absorbance of the charge transfer bands: −5.0%
[2]; time 0 h
  Relative variation of the maximum absorbance of the π→π* transitions: 0.0%
  Relative variation of the maximum absorbance of the charge transfer bands: 0.0%
[2]; time 0.25 h
  Relative variation of the maximum absorbance of the π→π* transitions: 0.0%
  Relative variation of the maximum absorbance of the charge transfer bands: 0.0%
[2]; time 0.5 h
  Relative variation of the maximum absorbance of the π→π* transitions: 0.0%
  Relative variation of the maximum absorbance of the charge transfer bands: −0.2%
[2]; time 0.75 h
  Relative variation of the maximum absorbance of the π→π* transitions: −0.1%
  Relative variation of the maximum absorbance of the charge transfer bands: −0.3%
[2]; time 1 h
  Relative variation of the maximum absorbance of the π→π* transitions: 0.9%
  Relative variation of the maximum absorbance of the charge transfer bands: 0.7%
[2]; time 2 h
  Relative variation of the maximum absorbance of the π→π* transitions: 1.5%
  Relative variation of the maximum absorbance of the charge transfer bands: 1.5%
[2]; time 3 h
  Relative variation of the maximum absorbance of the π→π* transitions: 2.5%
  Relative variation of the maximum absorbance of the charge transfer bands: 2.5%
[2]; time 4 h
  Relative variation of the maximum absorbance of the π→π* transitions: 3.0%
  Relative variation of the maximum absorbance of the charge transfer bands: 3.1%
[2]; time 5 h
  Relative variation of the maximum absorbance of the π→π* transitions: 3.0%
  Relative variation of the maximum absorbance of the charge transfer bands: 3.2%
[2]; time 6 h
  Relative variation of the maximum absorbance of the π→π* transitions: 2.8%
  Relative variation of the maximum absorbance of the charge transfer bands: 3.1%
[2]; time 24 h
  Relative variation of the maximum absorbance of the π→π* transitions: 3.3%
  Relative variation of the maximum absorbance of the charge transfer bands: 4.2%
